{
  "source": "patent US9913809B1",
  "about": "“Anti-cancer activity of (E)-1-(3′,4′-dimethoxyphenyl) butadiene” (SAMI LABS LIMITED, priority 2016, dated 2018)",
  "key": {"[1]": {"system": "melanoma B16F1 cancer cell line", "test": "MTT cytotoxicity assay, B16F1", "type": "cell-based, human", "conditions": "Mus musculus, B16-F1", "protocol": "(§1) Human pancreatic PANC-1 cancer cell line (pancreatic carcinoma cells), human prostate DU145 cancer cell line (prostate carcinoma), human ovarian cancer SKOV3 (ovarian carcinoma) cell line, colon Caco-2 cancer cell line (Colon Carcinoma), lung A549 cancer cell line (Lung carcinoma), lymphoblastoma K562 cancer cell line, melanoma B16F1 cancer cell line and colorectal HCT cancer cell line (Colorectal carcinoma), were grown and cultured using standard protocols known in the art. The cancer cell lines were treated with DMPBD in varying concentrations for measuring cytotoxicity. The estimation of the viability assay of the cells was done by the MTT (3-(4,5-dimethylthiazol-2-yl)-2,5-diphenyltetrazolium bromide) colorimetric assay. The MTT Assay measures the cell proliferation rate and conversely, when metabolic events lead to apoptosis or necrosis, the reduction in cell viability. The data is analyzed by plotting cell number versus absorbance allowing the quantification of changes in cell proliferation. The rate of tetrazolium reduction is proportional to the rate of cell proliferation. […]\n(§2) The MTT Assay as performed was adapted from (1) Tim Mosmann. […] A tetrazolium-based colorimetric MTT assay to quantitate human monocyte mediated cytotoxicity against leukemic cells from cell lines and patients with acute myeloid leukemia. […]"}, "[2]": {"system": "Caco-2 cancer cell line (Colon Carcinoma)", "test": "MTT cytotoxicity assay, Caco-2", "type": "cell-based", "conditions": "Homo sapiens, Caco-2, colon carcinoma", "protocol": "as §1, §2"}, "[3]": {"system": "A549 cancer cell line (Lung carcinoma)", "test": "MTT cytotoxicity assay, A549", "type": "cell-based", "conditions": "Homo sapiens", "protocol": "as §1, §2"}, "[4]": {"system": "SKOV3 (ovarian carcinoma) cell line", "test": "MTT cytotoxicity assay, SKOV3", "type": "cell-based", "conditions": "Homo sapiens, SK-OV-3", "protocol": "as §1, §2"}, "P-selectin (CD 62P) [5]": {"system": "P-selectin (CD 62P)", "test": "Flow cytometry, P-selectin expression in K562 lymphoblastoma cells", "type": "cell-based, human", "conditions": "TNF-alpha and IL-1beta 10 ng/ml, 72 hours"}, "L-selectin (CD 62L) [6]": {"system": "L-selectin (CD 62L)", "test": "Flow cytometry, L-selectin expression in HCT colorectal carcinoma cells", "type": "cell-based, human", "conditions": "TNF-alpha and IL-1beta 10 ng/ml, 72 hours"}, "L-selectin (CD 62L) [7]": {"system": "L-selectin (CD 62L)", "test": "Flow cytometry, L-selectin expression in K562 lymphoblastoma cells", "type": "cell-based, human", "conditions": "DMPBD 20 μg/ml, TNF-alpha and IL-1beta 10 ng/ml, 72 hours"}, "L-selectin (CD 62L) [8]": {"system": "L-selectin (CD 62L)", "test": "Flow cytometry, L-selectin expression in pancreatic carcinoma cells", "type": "cell-based, human", "conditions": "flow cytometric studies"}, "P-selectin (CD 62P) [9]": {"system": "P-selectin (CD 62P)", "test": "Flow cytometry, P-selectin expression in LNCap prostate carcinoma cells", "type": "cell-based, human", "conditions": "DMPBD 70 μg/ml, TNF-alpha and IL-1beta 10 ng/ml, 72 hours"}, "[10]": {"system": "lymphoblastoma K562 cancer cell line", "test": "MTT cytotoxicity assay, K562", "type": "cell-based", "conditions": "Homo sapiens", "protocol": "as §1, §2"}, "[11]": {"system": "PANC-1 cancer cell line (pancreatic carcinoma cells)", "test": "MTT cytotoxicity assay, PANC-1", "type": "cell-based", "conditions": "Homo sapiens, PANC-1, pancreatic carcinoma", "protocol": "as §1, §2"}, "[12]": {"system": "HCT cancer cell line (Colorectal carcinoma)", "test": "MTT cytotoxicity assay, HCT", "type": "cell-based", "conditions": "Homo sapiens", "protocol": "as §1, §2"}, "L-selectin (CD 62L) [13]": {"system": "L-selectin (CD 62L)", "test": "Flow cytometry, L-selectin expression in LNCap prostate carcinoma cells", "type": "cell-based, human", "conditions": "DMPBD 20 μg/ml, TNF-alpha and IL-1beta 10 ng/ml, 72 hours"}, "P-selectin (CD 62P) [14]": {"system": "P-selectin (CD 62P)", "test": "Flow cytometry, P-selectin expression in HCT colorectal carcinoma cells", "type": "cell-based, human", "conditions": "TNF-alpha and IL-1beta 10 ng/ml, 72 hours"}, "[15]": {"system": "DU145 cancer cell line (prostate carcinoma)", "test": "MTT cytotoxicity assay, DU145", "type": "cell-based", "conditions": "Homo sapiens, DU 145, prostate carcinoma", "protocol": "as §1, §2"}, "E-selectin (CD 62E)": {"system": "E-selectin (CD 62E)", "test": "Flow cytometry, E-selectin expression in pancreatic carcinoma cells", "type": "cell-based, human", "conditions": "flow cytometric studies"}, "P-selectin (CD 62P) [16]": {"system": "P-selectin (CD 62P)", "test": "Flow cytometry, P-selectin expression in pancreatic carcinoma cells", "type": "cell-based, human", "conditions": "flow cytometric studies"}},
  "data": [
    {"smiles": "C=C/C=C/c1ccc(OC)c(OC)c1", "note": "[DMPBD, (E)-1-(3′, 4′-Dimethoxyphenyl) butadiene]", "values": [
      {"measurement": "IC50", "setting": "[1]", "value": 26.4, "unit": "µg/mL"},
      {"measurement": "IC50", "setting": "[2]", "value": 39.3, "unit": "µg/mL"},
      {"measurement": "IC50", "setting": "[3]", "value": 30.2, "unit": "µg/mL"},
      {"measurement": "IC50", "setting": "[4]", "value": 13.5, "unit": "µg/mL"},
      {"measurement": "% Reduction of P-selectin expression", "setting": "P-selectin (CD 62P) [5]; DMPBD 10 μg/ml", "value": 11.6, "unit": "%"},
      {"measurement": "% Reduction of P-selectin expression", "setting": "P-selectin (CD 62P) [5]; DMPBD 20 μg/ml", "value": 35.4, "unit": "%"},
      {"measurement": "% Reduction of L-selectin expression", "setting": "L-selectin (CD 62L) [6]; DMPBD 10 μg/ml", "value": 11.3, "unit": "%"},
      {"measurement": "% Reduction of L-selectin expression", "setting": "L-selectin (CD 62L) [6]; DMPBD 20 μg/ml", "value": 21.1, "unit": "%"},
      {"measurement": "% Reduction of L-selectin expression", "setting": "L-selectin (CD 62L) [7]", "value": 30.3, "unit": "%"},
      {"measurement": "expression of L-selectin", "setting": "L-selectin (CD 62L) [8]", "value": "significant fold decrease"},
      {"measurement": "% Reduction of P-selectin expression", "setting": "P-selectin (CD 62P) [9]", "value": 11.1, "unit": "%"},
      {"measurement": "IC50", "setting": "[10]", "value": 22.5, "unit": "µg/mL"},
      {"measurement": "IC50", "setting": "[11]", "value": 4.2, "unit": "µg/mL"},
      {"measurement": "IC50", "setting": "[12]", "value": 25.5, "unit": "µg/mL"},
      {"measurement": "% Reduction of L-selectin expression", "setting": "L-selectin (CD 62L) [13]", "value": 7.3, "unit": "%"},
      {"measurement": "% Reduction of P-selectin expression", "setting": "P-selectin (CD 62P) [14]; DMPBD 10 μg/ml", "value": 11.8, "unit": "%"},
      {"measurement": "% Reduction of P-selectin expression", "setting": "P-selectin (CD 62P) [14]; DMPBD 20 μg/ml", "value": 27.8, "unit": "%"},
      {"measurement": "IC50", "setting": "[15]", "value": 8.6, "unit": "µg/mL"},
      {"measurement": "expression of E-selectin", "setting": "E-selectin (CD 62E)", "value": "significant fold decrease"},
      {"measurement": "expression of P-selectin", "setting": "P-selectin (CD 62P) [16]", "value": "significant fold decrease"}
    ]}
  ]
}
